Assay results reported in patent publication US20070093524A1, “5-Lipoxygenase modulators” (Wyeth, priority 2005, published 2007).

How the values were obtained:
5-LO mRNA = assay: Downregulation of 5-LO gene expression (5-LO mRNA by real-time RT-PCR) in acetylated-LDL-stimulated macrophage cell lines; type: cell-based, human and mouse; settings: macrophage cell line (THP-1 or J774, not specified); for inhibition at 0.3 µM: 0.3 uM compound; for inhibition at 3 µM: 3.0 uM compound; for inhibition at 0.1 µM: 0.1 uM compound; for inhibition at 1 µM: 1.0 uM compound
Procedure: A panel of LXR or PPAR modulator compounds was tested to determine whether they could downregulate 5-LO gene expression. The compounds were individually tested to determine whether they could downregulate 5-LO gene expression in human and mouse macrophage cell lines.
Preparation of Acetylated LDL: LDL was dialyzed with 500 mL phosphate buffered saline (PBS) three times. 2.5 mL of dialyzed LDL was mixed with 2.5 mL of saturated sodium acetate with continuous stirring in an ice-water bath. Acetic anhydride was added in 7 times 7.5 μL over a period of 1 hour with continuous stirring. Then, the mixture was stirred for an additional 1 hour. The solution was dialyzed against 500 mL PBS containing 0.3 mM EDTA three times. The protein concentration is determined using Bio-Rad DC protein assay kit.
Cell Culture and Compound Treatment: Human THP-1 cells were maintained in RPMI 1640 medium containing 10% Fetal Bovine Serum (FBS), 25 mM Hepes buffer, […] Genamicin, 1 mM Sodium pyruvate, and 50 μM β-mercaptoethanol. THP-1 cells were differentiated with 75 ng/mL phorbal 12,13-dibutyrate (PDBu) three days prior to assay to induce differentiation of the cells into adherent macrophages. Cells were seeded in 12 well plates in 1 mL of complete media. Each well contained 400,000 cells. The cells were stimulated with RPMI 1640 medium (1% FBS) containing 100 μg/mL acetylated-LDL in presence of phorbol ester for 48 hours, including several wells without acetylated-LDL treatment as a control. The medium was then changed to RPMI 1640 medium without FBS, plus the test compounds with phorbol ester for 48 hours. Control cells were not incubated with test compounds. The cells were incubated at 37° C. in a humidified CO2 incubator. The cells were then ready for RNA extraction.
Murine J774 cells were maintained in DMEM (high glucose) containing 10% FBS, 100 units/mL penicillin, and 100 μg/mL streptomycin. Six hours prior to assay, J774 cells were seeded into 96-well plates in 150 μL complete media. Each well contains 75,000 cells. The cells were stimulated with DMEM-high glucose (1% FBS) containing 100 μg/mL acetylated-LDL for 24 to 48 hours, including several wells without acetylated-LDL treatment as a control. The media was then changed to DMEM-high glucose (without FBS) plus the test compounds for 24 to 48 hours. Compounds were dosed in DMSO vehicle and control cells were treated with vehicle alone. The cells were incubated at 37° C. in a humidified CO2 incubator. The cells were then ready for RNA isolation.
RNA analysis: Total RNA was isolated from the THP-1 cells by using a QIAGEN RNeasy Mini Kit. Real-time quantitative RT-PCR assays were performed using an Applied Biosystems 7900 sequence detector. Each amplification mixture (50 μL) contained 50-100 ng of total RNA, 200 nM forward primer, 200 nM reverse primer, and 200 nM dual-labeled fluorogenic probe. The RT-PCR reagent is from QIAGEN (QuantiTect Probe RT-PCR kit). The RT-PCR thermocycling parameters were 48° C. for 30 minutes, 95° C. for 10 minutes, and 40 cycles at 95° C. for 15 seconds and 55° C. for 1 minute. The samples, no-RT controls, and serially diluted RNA standards were analyzed in parallel. The 5-LO target gene was analyzed and normalized for human glyceraldehyde-3-phosphate dehydrogenase (GAPDH) expression using probe and primers from predeveloped assays for GAPDH (Applied Biosystems). Quantitative analysis was performed using the threshold procedure, and relative amounts were calculated from the standard curve.
Total RNA from the J774 cells was isolated by using the ABI 6100 RNA isolation system for 96-well plates (the THP-1 cells can also be cultured and tested in 96-well plates). Real-time quantitative RT-PCR assays were performed using an Applied Biosystems 7900 sequence detector. Each amplification mixture (50 μL) contained 50-100 ng of total RNA, 200 nM forward primer, 200 nM reverse primer, and 250 nM dual-labeled fluorogenic probe.

melting point [°C]	SMILES	inhibition at 0.3 µM (5-LO mRNA) [%]	inhibition at 3 µM (5-LO mRNA) [%]	inhibition at 0.1 µM (5-LO mRNA) [%]	inhibition at 1 µM (5-LO mRNA) [%]
	NNC(=O)Cc1ccc(CNc2cccc(-c3c(Cc4ccccc4)cnc4c(C(F)(F)F)cccc34)c2)cc1 [Compound I-12, (4-{[3-(3-Benzyl-8-trifluoromethyl-quinolin-4-yl)-phenylamino]-methyl}-phenyl)-acetic acid hydrazide]	71	76		
	Oc1cccc(CNc2cccc(-c3c(Cc4ccccc4)cnc4c(C(F)(F)F)cccc34)c2)c1O [Compound I-18, 3-{[3-(3-Benzyl-8-trifluoromethyl-quinolin-4-yl)-phenylamino]-methyl}-benzene-1,2-diol]	63	58		
	Cc1cnc2c(Cl)cccc2c1-c1cccc(OCc2ccc(CC(=O)O)cc2)c1 [Compound I-6, {4-[3-(8-Chloro-3-methyl-quinolin-4-yl)-phenoxymethyl]-phenyl}-acetic acid]			62	81
	CC(C)(C(=O)O)c1ccc(COc2cccc(-c3c(-c4ccccc4)cnc4c(Cl)cccc34)c2)cc1 [Compound I-8, 2-{4-[3-(8-Chloro-3-phenyl-quinolin-4-yl)-phenoxymethyl]-phenyl}-2-methyl-propionic acid]			89	93
	COC(=O)COc1ccc(COc2cccc(-c3c(-c4ccccc4)cnc4c(C(F)(F)F)cccc34)c2)cc1 [Compound I-23, {4-[3-(3-Phenyl-8-trifluoromethyl-quinolin-4-yl)-phenoxymethyl]-phenoxy}-acetic acid methyl ester]	76	92		
	COC(=O)Cc1ccc(CNc2cccc(-c3c(C)cnc4c(C(F)(F)F)cccc34)c2)cc1 [Compound I-20, (4-{[3-(3-Methyl-8-trifluoromethyl-quinolin-4-yl)-phenylamino]-methyl}-phenyl)-acetic acid methyl ester]	78	78		
	Cc1cnc2c(C(F)(F)F)cccc2c1-c1cccc(OCc2ccc(CC(=O)O)cc2)c1 [Compound I-4, {4-[3-(3-Methyl-8-trifluoromethyl-quinolin-4-yl)-phenoxymethyl]-phenyl}-acetic acid]			79	90
	Cc1cnc2c(C(F)(F)F)cccc2c1-c1cccc(OCc2ccc([C@@H](C)C(=O)O)cc2)c1 [Compound I-10, (2R)-2-{4-[3-(3-Methyl-8-trifluoromethyl-quinolin-4-yl)-phenoxymethyl]-phenyl}-propionic acid]			86	83
	O=C(O)Cc1ccc(CNc2cccc(-c3c(Cc4ccccc4)cnc4c(C(F)(F)F)cccc34)c2)cc1 [Compound I-1, (4-{[3-(3-Benzyl-8-trifluoromethyl-quinolin-4-yl)-phenylamino]-methyl}-phenyl)-acetic acid]	82	83	91	88
	O=C(O)Cc1ccc(COc2cccc(-c3c(-c4ccccc4)cnc4c(Cl)cccc34)c2)cc1 [Compound I-5, {4-[3-(8-Chloro-3-phenyl-quinolin-4-yl)-phenoxymethyl]-phenyl}-acetic acid]			87	91
	CCOc1cc(CNc2cccc(-c3c(Cc4ccccc4)cnc4c(C(F)(F)F)cccc34)c2)ccc1O [Compound I-19, 4-{[3-(3-Benzyl-8-trifluoromethyl-quinolin-4-yl)-phenylamino]-methyl}-2-ethoxy-phenol]	22	60		
122	O=C(O)Cc1ccc(COc2cccc(-c3c(-c4ccccc4)cnc4c(C(F)(F)F)cccc34)c2)cc1 [Compound I-3, {4-[3-(3-Phenyl-8-trifluoromethyl-quinolin-4-yl)-phenoxymethyl]-phenyl}-acetic acid]			88	89
	O=C(O)Cc1ccc(C#Cc2cccc(-c3c(Cc4ccccc4)cnc4c(C(F)(F)F)cccc34)c2)cc1 [Compound I-9, {4-[3-(3-Benzyl-8-trifluoromethyl-quinolin-4-yl)-phenylethynyl]-phenyl}-acetic acid]			22	45
	CC(C)(C(=O)O)c1ccc(COc2cccc(-c3c(Cc4ccccc4)cnc4c(C(F)(F)F)cccc34)c2)cc1 [Compound I-7, 2-{4-[3-(3-Benzyl-8-trifluoromethyl-quinolin-4-yl)-phenoxymethyl]-phenyl}-2-methyl-propionic acid]			87	88
	O=C(O)Cc1ccc(COc2cccc(-c3c(Cc4ccccc4)cnc4c(C(F)(F)F)cccc34)c2)cc1 [Compound I-2, {4-[3-(3-Benzyl-8-trifluoromethyl-quinolin-4-yl)-phenoxymethyl]-phenyl}-acetic acid]			84	92
	COC(=O)Cc1ccc(CNc2cccc(-c3c(C(=O)c4ccccc4)cnc4c(C(F)(F)F)cccc34)c2)cc1 [Compound I-11, (4-{[3-(3-Benzoyl-8-trifluoromethyl-quinolin-4-yl)-phenylamino]-methyl}-phenyl)-acetic acid methyl ester]	74	71		
	COc1cc(CNc2cccc(-c3c(Cc4ccccc4)cnc4c(C(F)(F)F)cccc34)c2)ccc1O [Compound I-17, 4-{[3-(3-Benzyl-8-trifluoromethyl-quinolin-4-yl)-phenylamino]-methyl}-2-methoxy-phenol]	41	53		
	COC(=O)C(C)(C)c1ccc(CNc2cccc(-c3c(C)cnc4c(C(F)(F)F)cccc34)c2)cc1 [Compound I-22, 2-Methyl-2-(4-{[3-(3-methyl-8-trifluoromethyl-quinolin-4-yl)-phenylamino]-methyl}-phenyl)-propionic acid methyl ester]	67	55		
	COC(=O)C(C)c1ccc(CNc2cccc(-c3c(C)cnc4c(C(F)(F)F)cccc34)c2)cc1 (centres unmarked) [Compound I-21, 2-(4-{[3-(3-Methyl-8-trifluoromethyl-quinolin-4-yl)-phenylamino]-methyl}-phenyl)-propionic acid methyl ester]	78	63		
	CCOC(=O)Cc1ccc(COc2cccc(-c3c(-c4ccccc4)cnc4c(C(F)(F)F)cccc34)c2)cc1 [Compound I-14, {4-[3-(3-Phenyl-8-trifluoromethyl-quinolin-4-yl)-phenoxymethyl]-phenyl}-acetic acid ethyl ester]	81	84		
	CCOC(=O)Cc1cccc(CNc2cccc(-c3c(C(=O)c4ccccc4)cnc4c(C(F)(F)F)cccc34)c2)c1 [Compound I-13, (3-{[3-(3-Benzoyl-8-trifluoromethyl-quinolin-4-yl)-phenylamino]-methyl}-phenyl)-acetic acid ethyl ester]	40	30		
	CCOC(=O)Cc1ccc(COc2cccc(-c3c(Cc4ccccc4)cnc4c(C(F)(F)F)cccc34)c2)cc1 [Compound I-15, {4-[3-(3-Benzyl-8-trifluoromethyl-quinolin-4-yl)-phenoxymethyl]-phenyl}-acetic acid ethyl ester]	79	76		
